Tests used:
[1] = tested on: Cathepsin D (CTSD); test: Cathepsin D (CTSD) levels in treated G93A mice; format: in vivo; conditions: 10 mg/kg, day 100
Excerpt: We next investigated Cathepsin D (CTSD) expression and distribution in G93A mice, since its trafficking involves the retromer complex. In humans, CTSD maturation starts with a pre-pro-CTSD then converted to pro-CTSD (52 kDa) in the endoplasmic reticulum. Recycling of pro-CTSD and its downstream migration to acidic compartments involves CI-MPR and the retromer pathway. Pro-CTSD is further processed to an intermediate form in late endosomes (48 kDa), and finally converted to mature CTSD (34 kDa) in lysosomes. VPS35 inactivation[48] or VPS26 knockdown[21] affect CTSD maturation. We scored CTSD levels in lumbar SC extracts from vehicle-treated WT and vehicle- or 2a-treated G93A mice. […] We next analyzed CTSD levels and CTSD^+ puncta in MNs by confocal microscopy, observing their significant reduction in MNs of vehicle-treated G93A mice that was restored by treatment with compound 2a (Fig. 6f).
Fluorescence intensity levels of VPS35, VPS26, CI-MPR, Sortilin, CTSD and Ubiquitin were calculated using NHI-Image J software (US National Institutes of Health) according to the following protocol: stacks of confocal images were used to generate the maximal projections using the Leica Application Suite X (2.0.0.14332) software and then postprocessed by NHI-Image J to crop single NeuN^+ MNs from the ventral horn of the spinal cord. […] On this ROI, we measured mean fluoresce levels (MFI) of target proteins.

[2] = tested on: VPS26; test: VPS26 / VPS26b levels in MNs and lumbar SC of treated G93A mice; format: in vivo; conditions: 10 mg/kg, day 100
[3] = biological target: VPS35 (Mus musculus, UniProt Q9EQH3+Q9QZ88); test: Western blot for VPS35 in spinal cord extracts of treated C57BL6J mice; format: in vivo; set-up: from tissue; host or cells: mouse (lumbar) spinal cord, motor neurons; conditions: 10 mg/Kg intraperitoneally daily, 1 week
Description: Compounds 2a, 4a, and standard R55/1 (10 mg/Kg) were intraperitoneally injected in C57BL6J mice daily. After 1 week, mice were sacrificed, saline perfused to avoid CNS contamination by compounds in blood circulation, and SC protein extracts were assayed by WB. […] Therefore, phenyl-1,3-bis-guanylhydrazone 2a was selected as an early lead.

[4] = biological target: VPS29-VPS35 heterodimer (Homo sapiens, UniProt Q96QK1+Q9UBQ0); test: STD-NMR and WaterLogsy-NMR ligand-based binding experiments; conditions: 2a 500 μM, VPS29-VPS35 10 μM
Description: We used a ligand-based NMR approach to localize the binding between compound 2a and the VPS29-VPS35 heterodimer. These techniques provide binding information without requiring any isotopic labeling of the proteins. Particularly, Saturation Transfer Difference NMR (STD-NMR)[32] and WaterLogsy-NMR (WL-NMR)[33] experiments were acquired in buffer solutions containing a large excess of compound 2a (500μM) with respect to VPS29-VPS35 (10 μM). Both STD-NMR and WL-NMR focus on the NMR signals of the ligand and utilize the magnetization transfer by the Nuclear Overhauser Effect (NOE) between protein and ligand. STD-NMR experiments are carried out by subtraction of a 1D ^1H spectrum where the protein protons are selectively irradiated (on-resonance spectrum) from a spectrum in which the protein is not saturated (off-resonance spectrum).
WL-NMR entails magnetization transfer to the ligand from either bulk water via a macromolecule, and/or the exchangeable protons and the water molecules present in the binding site. Positive peaks for proton resonances of the ligand in the WL-NMR spectrum are observed for binders in presence of the protein. […] As negative control, STD-NMR and WL-NMR experiments were performed for compound 2a in absence of the heterodimer. The absence of proton signals in the aromatic zone and the presence of negative signals in STD-NMR (Fig. 2k) and WL-NMR (Fig. 2l) spectra, respectively, confirms the binding between compound 2a and the VPS29-VPS35 heterodimer. Unfortunately, STD- and WL-NMR competition experiments between 2a and R55/1 could not be performed since the latter compound was not stable in our experimental conditions.
NMR spectra were acquired at 298K on a Bruker Avance NEO 700 MHz spectrometer equipped with a Z-gradient cryoprobe. The spectra were processed with the Bruker TOPSPIN 4.0.5 software packages. […] 1D ^1H spectra were recorded using a 1 s presaturation pulse with a B1 power of 200 Hz. […]

NC(N)=N/N=C/c1cccc(/C=N/N=C(N)N)c1 [compound 2a, phenyl-1,3-bis-guanylhydrazone]
CTSD levels and CTSD+ puncta in MNs (confocal) [1]: restored | levels of mature CTSD (WB, lumbar SC extracts) [1]: significantly increased | VPS26b levels in lumbar SC extracts (WB) [2]: increase VPS35 and VPS26b levels | VPS35 levels in SC extracts [3]: significantly increased | STD-NMR binding [4]: interaction between the ligand and the protein complex | WL-NMR binding [4]: binds to the protein complex

From article PMC7395176, “Retromer stabilization results in neuroprotection in a model of Amyotrophic Lateral Sclerosis” (Nature Communications, 2020)
